These results are taken from PMC6616483, “Non-Pungent n-3 Polyunsaturated Fatty Acid (PUFA)-Derived Capsaicin Analogues as Potential Functional Ingredients with Antioxidant and Carbohydrate-Hydrolysing Enzyme Inhibitory Activities” (Antioxidants, 2019).

Assay [1] is described as follows: DPPH free radical scavenging assay. Particulars: means ± S.D. (n = 3); NA: not active at maximum concentration tested; read-out: DPPH Test IC50. The protocol:
The DPPH assay was performed according to a previously reported protocol. Absorbance was measured at 517 nm using a UV-Vis spectrophotometer (model V-550, Jasco, Milan, Italy). Ascorbic acid was used as positive control.
For orientation: DPPH is a stable violet radical that fades when it is reduced.

A short description of another assay: ABTS assay. Particulars: means ± S.D. (n = 3); NA: not active at maximum concentration tested; read-out: ABTS Test IC50. As for the experimental part: The ABTS assay was performed according to a previously reported protocol. Absorbance was measured at 734 nm using a UV-Vis spectrophotometer (model V-550, Jasco, Milan, Italy) Ascorbic acid was used as positive control.

Assay [2] is described as follows: Ferric reducing ability power (FRAP) test. Particulars: means ± S.D. (n = 3). The protocol:
The FRAP test was performed following the protocol previously described. Absorbance was measured using a UV-Vis spectrophotometer (model V-550, Jasco, Milan, Italy) at 470 nm. FRAP value was expressed as mM Fe(II)/g. Butylated hydroxytoluene (BHT) was used as a positive control.

The nature of assay [3]: β-Carotene bleaching test. As for the experimental part: The β-carotene bleaching test was performed as previously described. The absorbance of the samples, standard, and control was measured using a UV-Vis spectrophotometer (model V-550, Jasco, Milan, Italy) at 470 nm against a blank at t = 0 and successively at 30 and 60 min. Propyl gallate was used as positive control.

A further assay concerns the target α-glucosidase. The assay is described as follows: α-Glucosidase inhibitory assay. In kind it is biochemical. Particulars: for Ki: calculated following the Cheng–Prusoff equation; for IC50 / α-Glucosidase IC50: means ± S.D. (n = 3). The protocol: The α-glucosidase inhibitory assay was achieved following the procedure previously described. Absorbance was measured at 500 nm using a UV-Vis spectrophotometer (model V-550, Jasco, Milan, Italy). […] Ki value was calculated as previously described.

The subject of another assay is β-cells. Set-up: method as in PMID 31022842. The settings on record: cited from earlier work.
In the next assay the test system is healthy human subjects. Set-up: method as in PMID 16612838. The settings on record: oral administration; cited from earlier work.
The test system of the next assay is type 1 diabetic rats. Further details: method as in PMID 28230360. The settings on record: orally 6 mg/Kg for 28 days; cited from earlier work.
The next assay has as its target T1, α-amylase (Sus scrofa, UniProt P00690).
T1 sequence (P00690 16-511): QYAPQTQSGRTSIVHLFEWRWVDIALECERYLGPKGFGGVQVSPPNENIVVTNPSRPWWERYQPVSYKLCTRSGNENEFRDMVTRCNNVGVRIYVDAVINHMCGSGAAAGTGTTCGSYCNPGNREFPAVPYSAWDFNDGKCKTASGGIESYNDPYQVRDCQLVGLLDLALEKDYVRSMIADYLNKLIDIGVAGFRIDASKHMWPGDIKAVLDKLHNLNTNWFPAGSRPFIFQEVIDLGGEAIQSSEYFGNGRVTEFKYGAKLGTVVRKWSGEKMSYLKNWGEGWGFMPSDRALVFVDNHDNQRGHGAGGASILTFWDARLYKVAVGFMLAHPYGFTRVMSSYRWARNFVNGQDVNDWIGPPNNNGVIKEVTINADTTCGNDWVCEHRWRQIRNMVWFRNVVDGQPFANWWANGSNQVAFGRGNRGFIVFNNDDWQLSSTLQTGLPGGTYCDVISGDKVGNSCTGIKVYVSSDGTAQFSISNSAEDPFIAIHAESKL
Put plainly: α-Amylase inhibitory assay. In kind it is biochemical. Particulars: means ± S.D. (n = 3). The protocol:
The α-amylase inhibition assay was accomplished as previously described. Absorbance was measured at 540 nm using a UV-Vis spectrophotometer (model V-550, Jasco, Milan, Italy). […] Ki values were calculated following the Cheng–Prusoff equation [18].

The mark [4] stands for this setting: read-out: β-Carotene Bleaching Test IC50 30 min, 30 min of incubation.
Setting [5] is: read-out: β-Carotene Bleaching Test IC50 60 min, 60 min of incubation.

Where “and” joins values, the source holds several entries; their conditions need not be identical. Equal entries are not always repeated. Where two headings read alike, the source gives them in different places.

Take `O=C1O[C@H]([C@@H](O)CO)C(O)=C1O` [Ascorbic acid]: the IC50 (as a rule, the concentration needed to halve the response being measured) came to 23 ± 2 µM in [1] and 9.6 ± 0.9 µM in the assay “ABTS assay”.

Take `Cc1cc(C(C)(C)C)c(O)c(C(C)(C)C)c1` [BHT, Butylated hydroxytoluene]: in [2], the “FRAP Test” value is on record as 63 ± 4 μM Fe(II)/g.

Turning to `COc1cc(CNC(=O)CCCC/C=C/C(C)C)ccc1O` [Capsaicin, capsaicin], the half-maximal inhibitory concentration (IC50) was 10 ± 1 µM in [3] (setting [4]); 11 ± 1 µM in assay [3] (setting [5]); 13 ± 1 µM against α-glucosidase; 0.6 µM in assay [1]; 0.3 µM in the assay “ABTS assay”. Moreover, in assay [2], the “FRAP Test” value is 30 ± 3 μM Fe(II)/g. In addition, on α-glucosidase, the Ki (usually a measure of affinity in units of concentration, obtained from inhibition or displacement) is 1 µM. Further, the “release of insulin compared to the control” value in the assay on β-cells (15 min of incubation) and with β-cells (120 min of incubation) was “ineffective” each time. In addition, the “plasma insulin concentrations after glucose loading” value in the assay on healthy human subjects is “did not significantly differ from the control group”. Besides, in the assay with type 1 diabetic rats, the intestinal glucose absorption result is on record as “inhibited intestinal glucose absorption”.

Turning to `CC/C=C\C/C=C\C/C=C\C/C=C\C/C=C\C/C=C\CCC(=O)O` [DHA, docosahexaenoic acid], the IC50 in assay [3] (setting [4]) was found to be 70 ± 4 µM; in [3] (setting [5]), 287 ± 10 µM; at α-glucosidase, 268 ± 9 µM. In addition, in assay [2], the “FRAP Test” value is given as 9 ± 1 μM Fe(II)/g. For the same molecule, the inhibition constant Ki on α-glucosidase was 10 µM. In addition, the “α-Glucosidase IC50” value on α-glucosidase is “No significant carbohydrate-hydrolysing enzymes inhibition”. The “release of insulin compared to the control” value with β-cells (15 min of incubation) and in the assay on β-cells (120 min of incubation) was “ineffective” in each case. Also, the “α-Amylase IC50” value at α-amylase was “No significant carbohydrate-hydrolysing enzymes inhibition”.

Consider `CC/C=C\C/C=C\C/C=C\C/C=C\C/C=C\C/C=C\CCC(=O)NCc1ccc(O)c(OC)c1` [DHVA, N-docosahexaenoyl vanillylamine], for which the IC50 in [3] (setting [4]) was 46 ± 3 µM; in [3] (setting [5]) it was 56 ± 3 µM; against α-glucosidase, 23.9 µM and 24 µM; in assay [1], 0.8 µM; in “ABTS assay”, 0.3 µM. For the same molecule, the “FRAP Test” value in [2] is 18 ± 2 μM Fe(II)/g. Further, the inhibition constant (Ki) on α-glucosidase was 2 µM. For the same molecule, the “release of insulin compared to the control” value is “ineffective” in the assay with β-cells (15 min of incubation) and “slight decrease” in the assay on β-cells (120 min of incubation).

Turning to `CC/C=C\C/C=C\C/C=C\C/C=C\C/C=C\CCCC(=O)O` [EPA, eicosapentaenoic acid], the IC50 in assay [3] (setting [4]) turned out to be 74 ± 5 µM; in assay [3] (setting [5]), 310 ± 10 µM; against α-glucosidase it was 250 ± 9 µM. In addition, in assay [2], the “FRAP Test” value was 4.8 ± 0.8 μM Fe(II)/g. On α-glucosidase, the Ki is 10 µM. For the same molecule, on α-glucosidase, the “α-Glucosidase IC50” value is “No significant carbohydrate-hydrolysing enzymes inhibition”. Moreover, the “release of insulin compared to the control” value with β-cells (15 min of incubation) and in the assay on β-cells (120 min of incubation) was “ineffective” in each case. Also, the “α-Amylase IC50” value on α-amylase is given as “No significant carbohydrate-hydrolysing enzymes inhibition”.

For the molecule `CC/C=C\C/C=C\C/C=C\C/C=C\C/C=C\CCCC(=O)NCc1ccc(O)c(OC)c1` [EPVA, N-eicosapentaenoyl vanillylamine], the half-maximal inhibitory concentration (IC50) in assay [3] (setting [4]) is 9 ± 1 µM; in assay [3] (setting [5]), 11 ± 1 µM; against α-glucosidase, 23.6 µM and 24 µM; in [1], 1 µM; in the assay “ABTS assay”, 0.2 µM. Further, in assay [2], the “FRAP Test” value was 28 ± 2 μM Fe(II)/g. The Ki on α-glucosidase was 2 µM. For the same molecule, the “release of insulin compared to the control” value in the assay on β-cells (15 min of incubation) and in the assay on β-cells (120 min of incubation) was “significant increase” each time.

For the molecule `CCCOC(=O)c1cc(O)c(O)c(O)c1` [Propyl gallate], the IC50 in [3] (setting [4]) and in assay [3] (setting [5]) was 0.4 µM throughout.

For `COc1cc(COC(=O)CCCC/C=C/C(C)C)ccc1O` [capsiate], the intestinal glucose absorption entry with type 1 diabetic rats was “inhibited intestinal glucose absorption”.
